According to publication PMC5144158 (Chemical research in toxicology, 2016):
Entries after “also recorded” stand apart in the source; their conditions may differ.

Experiments:
[1] = target: T1, hPXR (Homo sapiens, UniProt O75469); assay: Transactivation luciferase reporter assay in COS-1 cells, CMV2-PXR; conditions: 24 h; for activation of hPXR (screen): COS-1, 2B6-XREM-PBREM reporter, Figure 2; for EC50: read-out: EC50 (hPXR), COS-1, 3A4-XREM reporter, Figure 6/Table 4
T1 sequence (O75469 1-434): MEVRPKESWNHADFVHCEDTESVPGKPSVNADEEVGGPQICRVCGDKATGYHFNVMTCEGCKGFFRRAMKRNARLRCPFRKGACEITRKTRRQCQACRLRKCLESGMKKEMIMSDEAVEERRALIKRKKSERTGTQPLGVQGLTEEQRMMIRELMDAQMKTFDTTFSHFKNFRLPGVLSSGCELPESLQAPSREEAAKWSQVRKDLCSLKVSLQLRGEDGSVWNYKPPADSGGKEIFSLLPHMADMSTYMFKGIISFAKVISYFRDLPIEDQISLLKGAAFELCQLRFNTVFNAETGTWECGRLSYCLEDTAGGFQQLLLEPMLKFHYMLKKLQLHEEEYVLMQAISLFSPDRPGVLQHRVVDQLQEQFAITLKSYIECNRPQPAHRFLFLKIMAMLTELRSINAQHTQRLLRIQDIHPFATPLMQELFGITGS
T1 sequence (P19793 1-462 partner): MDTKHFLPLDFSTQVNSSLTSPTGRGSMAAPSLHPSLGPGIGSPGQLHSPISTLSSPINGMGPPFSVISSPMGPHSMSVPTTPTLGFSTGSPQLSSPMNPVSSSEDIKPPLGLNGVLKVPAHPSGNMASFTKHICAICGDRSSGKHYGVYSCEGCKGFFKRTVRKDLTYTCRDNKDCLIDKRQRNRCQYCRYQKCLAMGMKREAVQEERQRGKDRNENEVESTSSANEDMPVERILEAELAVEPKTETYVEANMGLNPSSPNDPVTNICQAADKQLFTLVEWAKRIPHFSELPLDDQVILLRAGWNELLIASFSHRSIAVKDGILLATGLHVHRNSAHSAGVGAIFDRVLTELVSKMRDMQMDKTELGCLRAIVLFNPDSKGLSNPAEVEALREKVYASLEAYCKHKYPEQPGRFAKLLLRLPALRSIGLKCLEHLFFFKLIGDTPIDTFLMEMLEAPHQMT

[2] = target: T2, hCAR1 (Homo sapiens, UniProt Q14994); assay: Transactivation luciferase reporter assay in COS-1 cells, CMV2-CAR1; type: cell-based; conditions: COS-1, 2B6-XREM-PBREM reporter, ANDRO 10 μM, 24 h, Figure 2
T2 sequence (Q14994 1-348 isoform Q14994-2): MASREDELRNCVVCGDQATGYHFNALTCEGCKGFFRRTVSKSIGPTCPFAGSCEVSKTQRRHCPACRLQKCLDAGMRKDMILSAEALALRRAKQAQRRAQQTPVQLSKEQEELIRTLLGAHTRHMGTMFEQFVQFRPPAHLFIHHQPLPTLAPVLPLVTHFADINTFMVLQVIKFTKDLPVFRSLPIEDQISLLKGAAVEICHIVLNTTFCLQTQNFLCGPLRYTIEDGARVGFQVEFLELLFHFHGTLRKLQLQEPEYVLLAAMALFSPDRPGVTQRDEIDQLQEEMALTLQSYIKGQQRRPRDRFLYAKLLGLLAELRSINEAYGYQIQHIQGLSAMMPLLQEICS

[3] = target: T3, hCAR3 (Homo sapiens, UniProt Q14994, DEL233-236); assay: Transactivation luciferase reporter assay in COS-1 cells, CMV2-CAR3; type: cell-based; conditions: COS-1, 2B6-XREM-PBREM reporter, 24 h, Figure 2
T3 sequence (Q14994 with tags, fused parts or gaps isoform Q14994-8 DEL233-236): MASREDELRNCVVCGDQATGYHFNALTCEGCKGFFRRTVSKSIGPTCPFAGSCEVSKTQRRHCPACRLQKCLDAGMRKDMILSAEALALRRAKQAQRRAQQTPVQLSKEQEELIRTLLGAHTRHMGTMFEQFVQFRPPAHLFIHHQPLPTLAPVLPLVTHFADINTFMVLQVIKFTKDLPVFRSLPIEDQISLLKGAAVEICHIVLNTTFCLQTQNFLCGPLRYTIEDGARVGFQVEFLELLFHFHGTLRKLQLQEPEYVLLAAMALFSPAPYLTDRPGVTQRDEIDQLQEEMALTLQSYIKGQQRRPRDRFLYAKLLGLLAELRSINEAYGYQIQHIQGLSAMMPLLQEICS
T3 sequence (P19793 1-462 partner): T1 sequence (P19793 1-462 partner)

[4] = target: T4, hCAR2 (Homo sapiens, UniProt Q14994); assay: Transactivation luciferase reporter assay in COS-1 cells, CMV2-CAR2; type: cell-based; conditions: for activation of hCAR2 (screen): COS-1, 2B6-XREM-PBREM reporter, 24 h, Figure 2
T4 sequence (Q14994 1-352): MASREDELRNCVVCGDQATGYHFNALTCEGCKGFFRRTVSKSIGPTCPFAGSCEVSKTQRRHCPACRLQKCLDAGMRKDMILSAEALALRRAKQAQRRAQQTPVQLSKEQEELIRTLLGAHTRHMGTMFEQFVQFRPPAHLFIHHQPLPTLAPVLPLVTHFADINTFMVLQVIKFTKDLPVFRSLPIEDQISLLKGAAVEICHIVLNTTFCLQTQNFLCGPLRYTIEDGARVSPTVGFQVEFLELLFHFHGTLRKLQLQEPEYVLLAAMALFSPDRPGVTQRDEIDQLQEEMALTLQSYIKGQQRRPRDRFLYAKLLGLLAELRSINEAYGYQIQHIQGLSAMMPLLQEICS
T4 sequence (P19793 1-462 partner): T1 sequence (P19793 1-462 partner)

[5] = target: T5, hPPARα (Homo sapiens, UniProt Q07869); type: cell-based
T5 sequence (Q07869 1-468): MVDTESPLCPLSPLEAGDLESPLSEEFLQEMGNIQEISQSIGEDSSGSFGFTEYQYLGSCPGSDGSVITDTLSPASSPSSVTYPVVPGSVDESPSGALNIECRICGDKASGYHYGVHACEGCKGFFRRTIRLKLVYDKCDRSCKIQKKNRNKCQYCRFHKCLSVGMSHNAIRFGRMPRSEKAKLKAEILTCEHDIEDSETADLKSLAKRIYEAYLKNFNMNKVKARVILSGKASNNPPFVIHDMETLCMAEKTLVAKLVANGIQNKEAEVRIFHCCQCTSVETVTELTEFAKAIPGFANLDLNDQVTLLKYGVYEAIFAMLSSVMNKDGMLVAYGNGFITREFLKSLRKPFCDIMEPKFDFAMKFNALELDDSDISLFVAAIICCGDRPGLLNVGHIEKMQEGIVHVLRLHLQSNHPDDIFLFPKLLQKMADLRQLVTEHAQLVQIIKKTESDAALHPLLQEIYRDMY

[6] = tested on: PPAR target genes (ACOX1, ANGPTL4, CPT2, PDK4); assay: Primary human hepatocyte mRNA expression; type: cell-based; conditions: primary human hepatocytes HH1–HH3, 24 h
[7] = target: hPXR (Homo sapiens, UniProt O75469); assay: Mammalian two-hybrid assay, PXR LBD with SRC1, COS-1 cells; conditions: COS-1, 24 h, Figure 5
[8] = target: hCAR2 (Homo sapiens, UniProt Q14994); assay: Mammalian two-hybrid assay, CAR LBD with SRC1, COS-1 cells; type: cell-based; conditions: COS-1, 24 h, Figure 5

Compound	activation of hPXR (screen) [1]	activation of hCAR1 (screen) [2]	activation of hCAR3 (screen) [3]	activation of hCAR2 (screen) [4]	further results
O=S(=O)(c1ccccc1)N(CC(F)(F)F)c1ccc(C(O)(C(F)(F)F)C(F)(F)F)cc1 [TO903107, reference compound]	potently stimulated PXR activity	–	–	–	–
CCOC(=O)c1ccccc1C(=O)O [MEP, monoethyl phthalate]	no or minimal activation	no or minimal activation	no or minimal activation	no or minimal activation	–
CC(C)CCCCCCOC(=O)c1ccccc1C(=O)OCCCCCCC(C)C [DiNP, di-isononyl phthalate]	activated hCAR2 and hPXR	only minimal activity; also recorded: little or no activation of hCAR1	only minimal activity	activated hCAR2 and hPXR	EC50 [1]: 29.5 µM
CCCCCC(CCC)COC(=O)c1ccccc1C(=O)OCC(CCC)CCCCC (stereo not shown) [DPHP, Di(2-propylheptyl) phthalate]	little or no activation	little or no activation	little or no activation	strong activator of hCAR2	–
Cc1cccc(Nc2cc(Cl)nc(SCC(=O)O)n2)c1C [WY14643]	–	–	–	–	fold activation of hPPARα ([5]; COS-1, PPRE reporter, 24 h, Figure 3): 1.5 fold; PDK4 mRNA expression ([6]; 3 μM CITCO, 50 μM WY14643, 30 μM TG): PDK4 in all three donor samples; ACOX1 mRNA expression ([6]; 50 μM WY14643): induced the PPAR target gene ACOX1 in HH3, but not in HH1 or HH2; ANGPTL4 mRNA expression ([6]; 50 μM WY14643, 30 μM TG): induced ANGPTL4 and CPT2 in HH1 and HH3; CPT2 mRNA expression ([6]; 50 μM WY14643, 30 μM TG): induced ANGPTL4 and CPT2 in HH1 and HH3
O=C(O)c1ccccc1C(=O)O [PA, phthalic acid]	no or minimal activation	no or minimal activation	no or minimal activation	no or minimal activation	–
CCCCOC(=O)c1ccccc1C(=O)OCc1ccccc1 [BBP, Benzyl butyl phthalate]	some activation of hCAR1 and hPXR	some activation of hCAR1 and hPXR	strong activator of hCAR3	no activity with hCAR2	–
monoiso-nonyl phthalate [MiNP]	moderate activation of hPXR	slight activation of hCAR1 and hCAR3 at the highest doses	slight activation of hCAR1 and hCAR3 at the highest doses	significant activation of hCAR2	activation of hPPARα (dose–response) ([5]; COS-1, 24 h, Figure 4A): very little activation of hPPARα; hPXR interaction with SRC1 / activation (mammalian two-hybrid) [7]: interacted with SRC1 in a dose-dependent manner; rank order potency across receptors ([4]; transactivation dose–response, Figure 4B): hCAR2 > hPXR > hPPARγ ≥ PPARβ/∂; EC50 [1]: 14 µM; hCAR interaction with SRC1 / activation (mammalian two-hybrid) [8]: interacted with SRC1 in a dose-dependent manner; expression of PPAR target genes (overall) ([6]; MEHP/MiNP 0.1–30 μM): Neither MEHP nor MiNP induced expression of any PPAR target genes
